Test results published in patent publication US10576085B2, “Substituted aminopurine compounds, compositions thereof, and methods of treatment therewith” (Signal Pharmaceuticals, LLC, priority 2016, dated 2020).

Assays:
Assay in all cases: Proliferation, CellTiter-Glo, 72 h
Assay type in all cases: cell-based
SW48 = conditions: Homo sapiens; SW48, CRC; CTNNB1 (S33Y); EGFR (G179S); β-catenin Active
AGS = conditions: Homo sapiens, Gastric, CTNNB1 (G43E), KRAS (G12D), β-catenin Active
Colo 205 = conditions: Homo sapiens; Colo 205, CRC; BRAF (V600E); β-catenin status N/A
Protocol: HCC cell lines were treated with DMSO or increasing concentrations of Compound 1 for 72 h. Specifically, Compound 1 at various concentrations in dimethyl sulfoxide (DMSO) was spotted via an acoustic dispenser (EDC ATS-100) into an empty 384-well plate. Compound 1 was spotted in a 10-point serial dilution fashion (3-fold dilution) in duplicate within the plate. Replicates of plates spotted with Compound 1 were made for use with different cell lines. After compound plate replication, all plates were sealed (Agilent ThermoLoc) and stored at −20° C. for up to 1 month. When ready for testing, plates were removed from the freezer, thawed, and unsealed just prior to the addition of the test cells.
Prior to testing, cells were grown and expanded in culture flasks to provide sufficient amounts of starting material. Cells were then diluted to the appropriate densities and added directly to the compound-spotted 384-well plates. […] At the time when compound was added (t0), initial cell number was assessed via a viability assay (Cell Titer-Glo) by quantifying the level of luminescence generated by ATP present in viable cells. After 72 h, cell viability of compound-treated cells was assessed via Cell Titer-Glo and luminescence measurement. The apoptotic response to Compound 1 was assessed by quantifying the activities of caspase 3 and caspase 7 (Caspase 3/7-Glo) in treated cells and DMSO control cells. […]

C[C@]1(C(N)=O)CC[C@@H](n2c(Nc3c(Cl)cc(Cl)cc3Cl)nc3cnc(N[C@@H]4CCOC[C@H]4F)nc32)CC1 [Compound 1, cis-4-[2-{[(3S,4R)-3-fluorooxan-4-yl]amino}-8-(2,4,6-trichloroanilino)-9H-purin-9-yl]-1-methyl cyclohexane-1-carboxamide]
IC50 (SW48): 9 nM | IC50 (AGS): 28 nM | IC50 (Colo 205): 36 nM
